According to PubChem BioAssay (NCI):
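Cells were grown in 96-well plates and exposed to each compound for 48 hours at five concentrations; endpoints were interpolated linearly between bracketing concentrations, or set to the highest concentration if not reached. At the GI50, growth is halved. TGI denotes the concentration required for complete inhibition of growth.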

Columns and labels:
Assay in all cases: NCI tumour cell line growth inhibition, 48 h
[1] = system: A549 NSCLC
[2] = system: IGROV1 ovarian
[3] = system: NCI-H23 lung
[4] = system: OVCAR-8 ovarian
[5] = system: SF-268 CNS
[6] = system: SF-295 CNS
[7] = system: SK-MEL-2 melanoma
[8] = system: SK-MEL-5 melanoma
[9] = system: SNB-19 CNS
[10] = system: SNB-75 CNS

| Structure (SMILES) | TGI [1] | TGI [2] | TGI [3] | TGI [4] | TGI [5] | TGI [6] | TGI [7] | TGI [8] | TGI [9] | TGI [10] | GI50 [6] | GI50 [7] | GI50 [8] | GI50 [10] | GI50 [1] | GI50 [2] | GI50 [3] | GI50 [4] | GI50 [5] | GI50 [9] |
| --- | --- | --- | --- | --- | --- | --- | --- | --- | --- | --- | --- | --- | --- | --- | --- | --- | --- | --- | --- | --- |
| C/C(=N\NC(=S)N1CCOCC1)c1nc2ncccc2[nH]1 | > 100 µM | > 100 µM | > 100 µM | 80.2 µM | > 100 µM | 69.6 µM | 69.4 µM | > 100 µM | 84.6 µM | 44.1 µM | – | – | – | – | – | – | – | – | – | – |
| Cc1cc(Nc2ccc(Cl)cc2)nc(NCCCNc2ccnc3cc(Cl)ccc23)n1 | – | – | – | – | – | 3.04 µM | 3.57 µM | 2.91 µM | – | 2.6 µM | 1.64 µM | 1.86 µM | 1.57 µM | 1.33 µM | – | – | – | – | – | – |
| NC(Cc1ccccc1CP(=O)(O)O)C(=O)O (stereo not drawn) | > 100 µM | > 100 µM | > 100 µM | > 100 µM | > 100 µM | > 100 µM | > 100 µM | > 100 µM | > 100 µM | > 100 µM | – | – | – | – | – | – | – | – | – | – |
| CC(C)=CCC/C(C)=C/C=C/C(C)=C/C1C[C@@]2(C(O)O1)[C@H](CCCO)/C(=C(/C)C=O)CC[C@]2(C)O (stereo partly drawn) | 25 µM | 40.6 µM | – | 51 µM | 33.3 µM | 27.7 µM | 34.6 µM | – | 35.4 µM | 69.9 µM | – | – | – | – | – | – | – | – | – | – |
| COc1cc2c(cc1OCCCOc1ccc(-c3cc4ccccc4c4ccccc34)cc1)N=C[C@@H]1CCCN1C2=O | 2.01 µM | 0.288 µM | 2.74 µM | 1.98 µM | 2.08 µM | – | 0.521 µM | 2.49 µM | 2.37 µM | 1.41 µM | – | 0.0467 µM | 1.24 µM | 0.261 µM | 0.724 µM | 0.122 µM | 1.41 µM | 0.425 µM | 0.86 µM | 1.16 µM |
| CCOC(=O)c1csc(NC(=O)C(C)N2CCOCC2)n1 (stereo not drawn) | > 100 µM | > 100 µM | > 100 µM | > 100 µM | – | > 100 µM | > 100 µM | > 100 µM | > 100 µM | > 100 µM | – | – | – | – | – | – | – | – | – | – |
| COC(=O)C(NC(=O)c1ccccc1)C(c1c(O)cc(O)cc1O)P(=O)(OC)OC (stereo not drawn) | > 100 µM | > 100 µM | > 100 µM | > 100 µM | > 100 µM | > 100 µM | > 100 µM | > 100 µM | > 100 µM | > 100 µM | – | – | – | – | – | – | – | – | – | – |
| COc1cc(/C=C2/Oc3c(OC)cccc3C2=O)ccc1O | > 100 µM | > 100 µM | > 100 µM | > 100 µM | > 100 µM | > 100 µM | > 100 µM | > 100 µM | > 100 µM | > 100 µM | – | – | – | – | – | – | – | – | – | – |
